Experimental data: US20160046618A1, “Cyclopropyl Fused Thiazin-2-Amine Compounds as Beta-Secretase Inhibitors and Methods of Use” (AMGEN INC., priority 2014, published 2016)
Where two headings read alike, the source gives them in different places.

Columns and labels:
[1] = biological target: Recombinant Cat D (Homo sapiens (Human), UniProt P07339); experiment: In vitro enzymatic Cathepsin D (Cat D) FRET assay; assay type: biochemical
Experimental: In Vitro Enzymatic Cathepsin D (Cat D) FRET (Fluorescence Resonance Energy Transfer) Assay
Recombinant Cat D was expressed in CHO cells. The assay buffer for CathepsinD is 0.05 M citrate pH 3.5, 10% DMSO final, 5 mM CHAPS. […] The assays are effectively started by the addition of different FRET substrates (20 nM for Cat D) and the combination is incubated for one hour. The FRET assay is terminated with by addition of Tris buffer, which raises the pH to neutrality, and the fluorescence is determined. The FRET substrate is a peptide with commercially available fluorophore and quencher, on opposite sides of the BACE cleavage site. The Cat D substrate peptide sequence is based on sequence #1 of Table 1 from Gulnik et al. FEBS Letters v413 p 379-384 1997. Proteolytic cleavage of the FRET substrate releases quenching of fluorescence (Cat D excitation 500 nm and emission 580 nm).

[2] = biological target: human recombinant BACE2 (Homo sapiens (Human), UniProt Q9Y5Z0); experiment: In vitro enzymatic BACE2 FRET assay; assay type: biochemical; conditions: BACE2 FRET enzyme assay; read-out: IC50 IP (μM) BACE2 enzyme
Experimental: (§1) These recombinant proteins were further purified using Ni-NTA affinity chromatography (Qiagen). […] This assay is effectively started by the addition of FRET substrate (50 nM) and the combination is incubated for one hour. The FRET assay is terminated by addition of Tris buffer, which raises the pH to neutrality, and the fluorescence is determined. The FRET substrate is a peptide with commercially available fluorophore and quencher, on opposite sides of the BACE cleavage site. Proteolytic cleavage of the FRET substrate releases quenching of fluorescence (excitation 488 nm and emission 590 nm).

[3] = biological target: human recombinant BACE1 (Homo sapiens (Human), UniProt P56817); experiment: In vitro enzymatic BACE1 FRET assay; assay type: biochemical; conditions: BACE1 FRET enzyme assay; read-out: IC50 IP (μM) BACE1 enzyme
Experimental: as §1

[4] = test system: Aβ40 in conditioned medium of cells stably expressing Amyloid Precursor Protein (APP); experiment: In vitro BACE-1 cell-based assay (Aβ40 sandwich ELISA); conditions: BACE1 cell-based assay; read-out: IC50 IP (μM) BACE1 cell
Experimental: In Vitro BACE-1 Cell-Based Assay
The cell-based assay measures inhibition or reduction of Aβ40 in conditioned medium of test compound treated cells expressing amyloid precursor protein. Cells stably expressing Amyloid Precursor Protein (APP) were plated at a density of 40K cells/well in 96 well plates (Costar). The cells were cultivated for 24 hours at 37° C. and 5% CO2 in DMEM supplemented with 10% FBS. The test compounds were then added to cells in 10-point dose response concentrations with the starting concentration being either 100 μM or 10 μM. The compounds were diluted from stock solutions in DMSO and the final DMSO concentration of the test compounds on cells was 0.1%. After 24 h of incubation with the test compounds the supernatant conditioned media was collected and the Aβ40 levels were determined using a sandwich ELISA. The IC50 of the compound was calculated from the percent of control or percent inhibition of Aβ40 as a function of the concentration of the test compound.
The sandwich ELISA to detect Aβ40 was performed in 96 well microtiter plates, which were pre-treated with goat anti-rabbit IgG (Pierce). The capture and detecting antibody pair that were used to detect Aβ40 from cell supernatants were affinity purified pAb40 (Biosource) and biotinylated 6E10 (Signet Labs Inc.), respectively. The optimal concentration for the pAb40 antibody was 3 μg/ml in Superblock/TBS (Pierce) that was supplemented with 0.05% Tween 20 (Sigma). […] Cellular supernatants were incubated with the capture antibody for 3 h at 4° C., followed by 3 wash steps in TBS-tween (0.05%). The detecting antibody incubation was for 2 h at 4° C., again followed by the wash steps as described previously. The final readout of the ELISA is Time-Resolved Fluorescence (counts per minute) using Delfia reagents Streptavidin-Europium and Enhancement solutions (Perkin Elmer) and the Victor 2 multilabel counter (Perkin Elmer).

[5] = Cathepsin D FRET enzyme assay, read-out: IC50 IP (μM) CatD

human recombinant BACE1, sequence (P56817 46-501): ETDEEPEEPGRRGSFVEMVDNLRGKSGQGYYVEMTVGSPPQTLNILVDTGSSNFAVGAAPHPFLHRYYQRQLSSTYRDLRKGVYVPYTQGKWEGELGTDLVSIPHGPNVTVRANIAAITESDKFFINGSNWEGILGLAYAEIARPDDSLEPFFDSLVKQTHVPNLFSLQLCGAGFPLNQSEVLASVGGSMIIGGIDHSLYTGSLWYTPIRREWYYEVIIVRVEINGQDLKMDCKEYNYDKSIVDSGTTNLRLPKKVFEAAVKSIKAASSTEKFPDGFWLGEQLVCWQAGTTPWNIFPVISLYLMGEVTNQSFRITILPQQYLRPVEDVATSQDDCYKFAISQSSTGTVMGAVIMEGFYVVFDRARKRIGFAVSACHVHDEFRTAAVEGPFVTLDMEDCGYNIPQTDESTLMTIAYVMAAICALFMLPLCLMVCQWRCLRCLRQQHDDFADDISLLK
Recombinant Cat D, sequence (P07339 65-412): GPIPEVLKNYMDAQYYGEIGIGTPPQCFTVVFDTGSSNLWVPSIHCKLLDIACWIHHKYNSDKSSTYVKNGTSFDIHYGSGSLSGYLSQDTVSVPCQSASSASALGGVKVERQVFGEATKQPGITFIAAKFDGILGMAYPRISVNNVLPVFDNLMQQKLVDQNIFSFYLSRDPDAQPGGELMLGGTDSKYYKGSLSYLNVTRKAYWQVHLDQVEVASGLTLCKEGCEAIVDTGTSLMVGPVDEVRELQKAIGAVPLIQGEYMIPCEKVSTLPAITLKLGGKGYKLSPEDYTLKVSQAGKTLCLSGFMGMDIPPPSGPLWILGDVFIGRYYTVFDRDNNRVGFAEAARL
human recombinant BACE2, sequence (Q9Y5Z0 63-518): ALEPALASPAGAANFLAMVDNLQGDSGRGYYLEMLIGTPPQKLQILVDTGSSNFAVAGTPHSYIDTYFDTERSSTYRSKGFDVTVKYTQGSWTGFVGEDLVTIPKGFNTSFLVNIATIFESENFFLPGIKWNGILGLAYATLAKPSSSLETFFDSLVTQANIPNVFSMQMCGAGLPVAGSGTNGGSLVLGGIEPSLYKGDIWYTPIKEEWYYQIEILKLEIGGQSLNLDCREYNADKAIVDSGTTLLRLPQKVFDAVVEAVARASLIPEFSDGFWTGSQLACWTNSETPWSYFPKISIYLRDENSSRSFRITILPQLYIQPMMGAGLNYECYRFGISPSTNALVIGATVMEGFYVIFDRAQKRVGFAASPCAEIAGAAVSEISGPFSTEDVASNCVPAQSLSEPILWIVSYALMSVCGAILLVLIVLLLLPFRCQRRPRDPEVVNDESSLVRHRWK

Row | Structure (SMILES) | IC50 [1, 5] [µM] | IC50 [2] [µM] | IC50 [3] [µM] | IC50 [4] [µM] | IC50 ([1]; first procedure (FRET), read-out: Cat D IC50) [µM]
1 | NC1=N[C@](CF)(c2cc(NC(=O)c3ccc(Cl)cn3)ccc2F)[C@@H]2C[C@]2(CO)S1 [Example 37, N-(3-((1S,5S,6S)-3-amino-5-(fluoromethyl)-1-(hydroxymethyl)-2-thia-4-azabicyclo[4.1.0]hept-3-en-5-yl)-4-fluorophenyl)-5-chloropicolinamide] | > 400 | 0.00161 | 0.00332 | 0.0014 | –
2 | COC[C@]12C[C@H]1[C@@](CF)(c1cc(NC(=O)c3ccc(Cl)cn3)ccc1F)N=C(N)S2 [Example 40, N-(3-((1S,5S,6S)-3-amino-5-(fluoromethyl)-1-(methoxymethyl)-2-thia-4-azabicyclo[4.1.0]hept-3-en-5-yl)-4-fluorophenyl)-5-chloro-2-pyridinecarboxamide] | 2810 | 0.00121 | 0.00553 | 0.0065 | –
3 | NC1=N[C@](CF)(c2cc(NC(=O)c3ccc(Cl)cn3)ccc2F)[C@@H]2C[C@]2(CF)S1 [Example 41, N-(3-((1S,5S,6S)-3-amino-1,5-bis(fluoromethyl)-2-thia-4-azabicyclo[4.1.0]hept-3-en-5-yl)-4-fluorophenyl)-5-chloro-2-pyridinecarboxamide] | > 400 | < 0.00203 | 0.00227 | 0.00596 | –
4 | NC1=N[C@](CF)(c2cc(NC(=O)c3ccc(Cl)cn3)ccc2F)[C@H]2C[C@@]2(CO)S1 [Example 42, N-(3-((1R,5S,6R)-3-amino-5-(fluoromethyl)-1-(hydroxymethyl)-2-thia-4-azabicyclo[4.1.0]hept-3-en-5-yl)-4-fluorophenyl)-5-chloro-2-pyridinecarboxamide] | 95.6 | 0.0039 | 0.00601 | 0.00576 | –
5 | COC[C@]12C[C@H]1[C@@](CF)(c1cc(NC(=O)c3ccc(Cl)cn3)cc(F)c1F)N=C(N)S2 [Example 43, N-(3-((1S,5S,6S)-3-amino-5-(fluoromethyl)-1-(methoxymethyl)-2-thia-4-azabicyclo[4.1.0]hept-3-en-5-yl)-4,5-difluorophenyl)-5-chloro-2-pyridinecarboxamide] | 755 | 0.00163 | 0.00235 | 0.00995 | > 400
6 | Cc1cc(C#N)cnc1C(=O)Nc1ccc(F)c([C@@]2(CF)N=C(N)S[C@@]3(CO)C[C@H]32)c1 [Example 44, N-(3-((1S,5S,6S)-3-amino-5-(fluoromethyl)-1-(hydroxymethyl)-2-thia-4-azabicyclo[4.1.0]hept-3-en-5-yl)-4-fluorophenyl)-5-cyano-3-methyl-2-pyridinecarboxamide] | > 400 | 0.00147 | 0.00255 | 0.00215 | –
7 | COC[C@]12C[C@H]1[C@@](CF)(c1cc(Nc3nccc4cc(C#N)cnc34)cc(F)c1F)N=C(N)S2 [Example 47, 8-((3-((1S,5S,6S)-3-amino-5-(fluoromethyl)-1-(methoxymethyl)-2-thia-4-azabicyclo[4.1.0]hept-3-en-5-yl)-4,5-difluorophenyl)amino)-1,7-naphthyridine-3-carbonitrile] | > 400 | 0.00187 | 0.00318 | 0.0162 | –
8 | N#Cc1cnc2c(Nc3ccc(F)c([C@@]4(CF)N=C(N)S[C@@]5(CO)C[C@H]54)c3)nccc2c1 [Example 50, 8-((3-((1S,5S,6S)-3-amino-5-(fluoromethyl)-1-(hydroxymethyl)-2-thia-4-azabicyclo[4.1.0]hept-3-en-5-yl)-4-fluorophenyl)amino)-1,7-naphthyridine-3-carbonitrile] | > 133 | 0.00286 | 0.00225 | 0.00505 | –
9 | C#CCOc1cnc(C(=O)Nc2ccc(F)c([C@@]3(CF)N=C(N)S[C@@]4(CO)C[C@H]43)c2)cn1 [Example 53, N-(3-((1S,5S,6S)-3-amino-5-(fluoromethyl)-1-(hydroxymethyl)-2-thia-4-azabicyclo[4.1.0]hept-3-en-5-yl)-4-fluorophenyl)-5-(2-propyn-1-yloxy)-2-pyrazinecarboxamide] | 349 | 0.0156 | 0.00045 | 0.00045 | –
10 | NC1=N[C@](CF)(c2cc(NC(=O)c3ccc(Cl)cn3)cc(F)c2F)[C@@H]2C[C@]2(CF)S1 [Example 59, N-(3-((1S,5S,6S)-3-amino-1,5-bis(fluoromethyl)-2-thia-4-azabicyclo[4.1.0]hept-3-en-5-yl)-4,5-difluorophenyl)-5-chloro-2-pyridinecarboxamide] | > 400 | < 0.00203 | 0.00114 | 0.0229 | –

The remaining lines, values ahead:

Row | IC50 [1, 5] [µM] | IC50 [2] [µM] | IC50 [3] [µM] | IC50 [4] [µM] | IC50 ([1]; first procedure (FRET), read-out: Cat D IC50) [µM] | Structure (SMILES)
11 | 295 | 0.0136 | 0.0198 | 0.0317 | – | C[C@]1(c2cc(Nc3ncnc4cc(Cl)cnc34)cc(F)c2F)N=C(N)S[C@H]2C[C@H]21 [Example 34, N-(3-((1S,5S,6S)-3-amino-5-methyl-2-thia-4-azabicyclo[4.1.0]hept-3-en-5-yl)-4,5-difluorophenyl)-7-chloropyrido[3,2-d]pyrimidin-4-amine]
12 | > 400 | 0.00323 | 0.00357 | 0.0149 | – | N#Cc1cnc2c(Nc3cc(F)c(F)c([C@@]4(CF)N=C(N)S[C@@]5(CO)C[C@H]54)c3)nccc2c1 [Example 48, 8-((3-((1S,5S,6S)-3-amino-5-(fluoromethyl)-1-(hydroxymethyl)-2-thia-4-azabicyclo[4.1.0]hept-3-en-5-yl)-4,5-fluorophenyl)amino)-7-naphthyridine-3-carbonitrile]
13 | 227 | 0.014 | 0.00399 | 0.00457 | – | C[C@]1(c2cc(Nc3ncnc4cc(C#N)cnc34)cc(F)c2F)N=C(N)S[C@@]2(CO)C[C@H]21 [Example 55, 4-((3-((1S,5S,6S)-3-amino-1-(hydroxymethyl)-5-methyl-2-thia-4-azabicyclo[4.1.0]hept-3-en-5-yl)-4,5-difluorophenyl)amino)pyrido[3,2-d]pyrimidine-7-carbonitrile]
14 | 29.5 | 0.0235 | 0.00563 | 0.0225 | – | N#Cc1cnc2c(Nc3cc(F)c(F)c([C@@]4(CF)N=C(N)S[C@]5(CO)C[C@@H]54)c3)nccc2c1 [Example 57, 8-((3-((1R,5S,6R)-3-amino-5-(fluoromethyl)-1-(hydroxymethyl)-2-thia-4-azabicyclo[4.1.0]hept-3-en-5-yl)-4,5-difluorophenyl)amino)-1,7-naphthyridine-3-carbonitrile]
15 | 975 | 0.0308 | 0.00397 | 0.00306 | – | COc1cnc2c(Nc3cc(F)c(F)c([C@@]4(C)N=C(N)S[C@@]5(CO)C[C@H]54)c3)ncnc2c1 [Example 58, ((1S,5S,6S)-3-amino-5-(2,3-difluoro-5-((7-methoxypyrido[3,2-d]pyrimidin-4-yl)amino)phenyl)-5-methyl-2-thia-4-azabicyclo[4.1.0]hept-3-en-1-yl)methanol]
16 | 204 | 0.00174 | 0.00135 | 0.00767 | – | C[C@]1(c2cc(Nc3nccc4cc(C#N)cnc34)cc(F)c2F)N=C(N)S[C@@]2(CF)C[C@H]21 [Example 60, 8-((3-((1S,5S,6S)-3-amino-1-(fluoromethyl)-5-methyl-2-thia-4-azabicyclo[4.1.0]hept-3-en-5-yl)-4,5-difluorophenyl)amino)-1,7-naphthyridine-3-carbonitrile]
